Like-named read-outs stand apart in the source and are kept apart here. Where a SMILES comes first, the peptide text is derived from it. [ ]: non-standard residue; d: D form. N(1S-Me-propyl)Gly = CC[C@H](C)NCC(=O)O; Nspe = C[C@H](NCC(=O)O)c1ccccc1; Nlys = NCCCCNCC(=O)O
Legend:
[1] = target: RAGE (Homo sapiens, UniProt Q15109); experiment: Binding affinity for RAGE from binding equilibrium attained in solution (competition ELISA); settings: 20 nM RAGE, JPT1a 0 to 1000 nM, overnight
Protocol: Definitive binding affinity of JPT1a for RAGE was determined from binding equilibrium attained in solution. As shown in FIGS. 8A-8B, 96-well plates coated with 500 nM JPT1a were treated with overnight incubations containing 20 nM RAGE and JPT1a in concentrations ranging from 0 nM to 1000 nM. Absorbance values were used to calculate relative [RAGE]bound and [RAGE]free via the […] (Friguet B, Chaffotte A F, Djavadi-Ohaniance L, Goldberg M E. Measurements of the true affinity constant in solution of antigen-antibody complexes by enzyme-linked immunosorbent assay. J Immunol Methods. 1985; 77(2):305-319; Rath S, Stanley C M. An inhibition enzyme immunoassay for estimating relative antibody affinity and affinity heterogeneity. 1988; 106:245-249; Newton P, Harrison P, Clulow S. A Novel Method for Determination of the Affinity of Protein: Protein Interactions in Homogeneous Assays. 2008:674-682). FIG. 8A. […] Black dashed lines indicate 95% confidence interval, and gray dashed lines indicate 95% prediction interval, n=4. FIG. 8B. […] Dashed lines indicate 95% confidence interval, n=3.

[2] = tested on: RAGE; experiment: RAGE upregulation in THP-1 macrophages co-incubated with peptoid and low-dose LPS (confocal imaging); type: cell-based, human; settings: 3 days
Protocol: THP-1 monocytes were differentiated into macrophages through exposure to phorbol 12-myristate 13-acetate (PMA) for three days prior to experimentation 10. […] Upon differentiation, these cells were then incubated (3 days) with media containing JPT1a (50, 10, or 2 μM) alone or JPT1a (50, 10, or 2 μM) in the presence of low-dose (2 ng/mL) lipopolysaccharide (LPS) as a chronic pro-inflammatory stimulus 11. Treatment with 2 ng/mL LPS alone served as a positive control, while treatment with an equivalent volume of buffer diluted into media served as the vehicle. Cellular supernatant was harvested on day 3 12; these samples were immediately centrifuged at 1200 rpm for 10 min at 25° C. to remove any cells or debris. The top 80% of this volume was subsequently removed and stored at −80° C. for later assessment of cytokines via ELISA. Cells were fixed and stained for RAGE, phalloidin (cytoplasmic marker), and DAPI (nuclear marker) 13. Each channel was imaged with a Zeiss LSM 510 META Confocal Scanning Laser Microscope using a plan-neofluar 40×/1.3 oil DIC immersion objective; three of these multi-channel images were obtained from each slide in each experiment 14. All multi-channel images were converted to TIFF file format via ImageJ64 software for quantitative image analysis using a custom subroutine written in Matlab™ software to obtain the average RAGE expression per volume of cells, and the data generated was assessed for statistical significance using GraphPad Prism 7.0 software 15.
(§1) Images acquired via confocal microscopy were analyzed via custom MATLAB™ subroutine to determine the average quantity of RAGE present within a given volume of cells. Results within each experiment are normalized to the positive control (2 ng/mL LPS alone), indicated by the dashed line at 1. Significance relative to positive control is indicated as ** p<0.01. Error bars indicate SEM, n=4.
as §1, with “1.0.” for “1. Significance relative to positive control is indicated as ** p<0.01.”, “n=2.” for “n=4.”

[3] = target: T1, E-cadherin (Homo sapiens, UniProt P12830); experiment: E-cadherin binding to JPT1a-coated 96-well plates; settings: plates coated with 500 nM JPT1a; E-cadherin 1 to 500 nM
T1 sequence (P12830 155-882): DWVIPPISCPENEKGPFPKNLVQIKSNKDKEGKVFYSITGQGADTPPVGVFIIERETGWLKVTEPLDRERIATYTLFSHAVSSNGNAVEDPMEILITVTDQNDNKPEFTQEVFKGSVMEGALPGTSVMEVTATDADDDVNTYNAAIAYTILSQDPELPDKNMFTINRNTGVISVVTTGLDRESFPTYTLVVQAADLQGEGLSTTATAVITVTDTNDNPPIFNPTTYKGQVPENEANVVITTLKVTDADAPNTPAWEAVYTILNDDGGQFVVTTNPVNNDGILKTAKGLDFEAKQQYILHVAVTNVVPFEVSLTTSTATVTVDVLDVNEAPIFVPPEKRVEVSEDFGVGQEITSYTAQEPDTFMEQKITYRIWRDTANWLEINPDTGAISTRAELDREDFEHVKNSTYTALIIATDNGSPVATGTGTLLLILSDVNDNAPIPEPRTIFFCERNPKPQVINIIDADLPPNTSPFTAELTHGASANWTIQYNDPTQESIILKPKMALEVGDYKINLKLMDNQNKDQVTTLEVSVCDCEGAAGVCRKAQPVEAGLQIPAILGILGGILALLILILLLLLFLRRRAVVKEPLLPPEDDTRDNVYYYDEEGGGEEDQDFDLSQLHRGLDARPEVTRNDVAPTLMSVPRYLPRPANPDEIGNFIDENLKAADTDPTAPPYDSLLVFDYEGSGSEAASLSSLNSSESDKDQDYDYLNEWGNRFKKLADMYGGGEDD
Protocol: As shown in FIGS. 7A-7D, 96-well plates coated with 500 nM JPT1a were treated with concentrations of RAGE (FIG. 7A) or E-cadherin (FIG. 7B) ranging from 1 to 500 nM. Values are reported as the average concentration of bound protein determined from all experiments. Error bars indicate SEM, n=2-5. […] In FIG. 7D, 96-well plates coated with 500 nM JPT1 were treated with concentrations of RAGE ranging from 1 to 350 nM.

Chain of RAGE (Homo sapiens, UniProt Q15109) (Q15109 23-404): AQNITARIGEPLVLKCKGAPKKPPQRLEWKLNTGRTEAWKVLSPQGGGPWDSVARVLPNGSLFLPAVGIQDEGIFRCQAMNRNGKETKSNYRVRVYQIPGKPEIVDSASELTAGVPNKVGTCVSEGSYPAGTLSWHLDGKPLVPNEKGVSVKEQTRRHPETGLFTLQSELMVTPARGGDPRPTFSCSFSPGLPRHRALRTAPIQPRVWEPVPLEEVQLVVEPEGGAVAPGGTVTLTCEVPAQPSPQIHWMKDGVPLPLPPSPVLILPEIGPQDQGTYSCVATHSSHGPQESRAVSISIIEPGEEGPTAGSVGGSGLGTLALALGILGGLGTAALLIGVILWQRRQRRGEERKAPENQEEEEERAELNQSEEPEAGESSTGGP

Compound: CC[C@H](C)N(CC(=O)N(CC(=O)N(CC(=O)N(CC(=O)N(CC(=O)N(CC(=O)N(CC(N)=O)[C@@H](C)c1ccccc1)[C@@H](C)c1ccccc1)[C@@H](C)CC)[C@@H](C)c1ccccc1)[C@@H](C)c1ccccc1)[C@@H](C)CC)C(=O)CNCCCCN [JPT1a] (H-[Nlys][N(1S-Me-propyl)Gly][N(1S-Me-propyl)Gly][Nspe][Nspe][N(1S-Me-propyl)Gly][Nspe][Nspe]-NH2)
- Kd ([1]; n=3, read-out: Kd, plot of specific binding (one epitope)): 79 ± 28.4 nM
- Kd ([1]; n=4, read-out: binding affinity for RAGE (Scatchard plot)): 139 nM
- upregulation in RAGE expression in the presence of LPS ([2]; peptoid 50, 10 or 2 μM with 2 ng/mL LPS, normalized to LPS alone): reduced in a dose-dependent and significant manner
- expression of RAGE, peptoid alone ([2]; peptoid alone (no LPS), relative to the control): does not provoke significant response or upregulation
- binding to E-cadherin [3]: absence of binding

Source: patent US11197908B2, “Peptoids and methods for attenuating inflammatory response” (THE BOARD OF TRUSTEES OF THE UNIVERSITY OF ARKANSAS, priority 2018, dated 2021)
